For 14 molecules, GI50 and TGI results are on record in PubChem BioAssay (NCI).

Structures are written as SMILES.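 Step 1: Grow cells in 96-well plates. Step 2: Expose to compound for 48 hours at 5 concentrations. Step 3: Interpolate endpoints linearly; if unreached, use highest concentration. The concentration for 50% growth inhibition is given as GI50. The concentration for full growth arrest is given as TGI.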

Some test systems named below: HS 578T breast; HT29 colon; LOX IMVI melanoma; MDA-MB-435; NCI-H23 lung; OVCAR-5 ovarian; RXF 393 renal; SK-MEL-28 melanoma; MOLT-4 leukemia; NCI-H226 lung.
Common to all, as to test: NCI-60 cell line screen, 48 h

For `CCNCCNc1cc(-c2ccc(C(F)(F)F)cc2)c(C#N)c2nc3cc(Cl)c(Cl)cc3n12`, the GI50 with HS 578T breast is 1.81 µM; in the test with HT29 colon, 1.64 µM; in the test with LOX IMVI melanoma it was 0.543 µM; in the test with MDA-MB-435, 1.65 µM; in the test with NCI-H23 lung it was 1.77 µM; in the test with OVCAR-5 ovarian it was 2.03 µM. Besides, the results for the GI50 in the test on RXF 393 renal and in the test on SK-MEL-28 melanoma were 1.3 µM and 1.4 µM, respectively. Also, the TGI in the test with HS 578T breast came to 3.91 µM; in the test on HT29 colon, 3.08 µM; with LOX IMVI melanoma, 1.88 µM; with MDA-MB-435, 3.16 µM; in the test with NCI-H23 lung, 3.52 µM; in the test with OVCAR-5 ovarian, 3.68 µM. The TGI with RXF 393 renal stood at 2.62 µM; in the test with SK-MEL-28 melanoma, 2.89 µM.
With `COC(=O)C1[C@H](c2ccc3c(c2)OCO3)OC(=O)[C@]1(C(=O)OC)C(=O)c1ccc(OC)c(OC)c1` (stereo partly specified), the TGI was > 100 µM with HT29 colon; 36.1 µM in the test on LOX IMVI melanoma; 87.2 µM with MOLT-4 leukemia; > 100 µM with NCI-H226 lung; > 100 µM in the test with NCI-H23 lung; > 100 µM with OVCAR-5 ovarian.
As for `O=c1cccc2n1CC1CNC[C@H]2C1`, the TGI in the test on HS 578T breast, in the test with HT29 colon, in the test on LOX IMVI melanoma, with MDA-MB-435, in the test with MOLT-4 leukemia and in the test on NCI-H23 lung was > 100 µM throughout. Besides, the TGI in the test on OVCAR-5 ovarian, in the test on RXF 393 renal and in the test on SK-MEL-28 melanoma was > 100 µM throughout.
Turning to `Cn1c(-c2c(N)n(Cc3ccc(F)cc3)c3nc(C#N)c(C#N)nc23)nc2ccccc21`, the GI50 was 4.67 µM in the test on HS 578T breast; 0.739 µM in the test with LOX IMVI melanoma; 1.83 µM in the test with MDA-MB-435; 1.3 µM with NCI-H23 lung; 8.55 µM with OVCAR-5 ovarian; 1.7 µM in the test with RXF 393 renal. Moreover, the GI50 with SK-MEL-28 melanoma was 5.65 µM. The TGI in the test on HS 578T breast was 26.7 µM; in the test on LOX IMVI melanoma, 2.18 µM; in the test with MDA-MB-435, 13.3 µM; in the test with NCI-H23 lung, 4.08 µM; in the test on OVCAR-5 ovarian, > 50 µM; in the test with RXF 393 renal, 4.86 µM. The molecule further showed a TGI with SK-MEL-28 melanoma of 29 µM.
On to `COc1cc(O)c2c(c1)C(=O)C1=C(C2=O)C(O)C[C@@](C)(O)C1` (stereo partly specified), for which the TGI in the test on HT29 colon was 2.39 µM; in the test on LOX IMVI melanoma it was 1.68 µM; in the test with MOLT-4 leukemia it was 7.63 µM; in the test with NCI-H226 lung it was 13.2 µM; in the test on NCI-H23 lung, 3.3 µM; in the test with OVCAR-5 ovarian it was 22.2 µM. Further, the TGI with RXF 393 renal amounted to 3.05 µM; in the test with SK-MEL-28 melanoma, 3.15 µM.
As for `COC12OCCN(C)C1=CC(=O)C1(C)N=NCC12` (stereo unspecified), the TGI in the test on HT29 colon, in the test with LOX IMVI melanoma, in the test with MOLT-4 leukemia, in the test on NCI-H226 lung, in the test with NCI-H23 lung and in the test on RXF 393 renal was > 100 µM each time. Also, the TGI with SK-MEL-28 melanoma is > 100 µM.
As for `CCCCCCCCCCOC(=O)NCCC`, the TGI in the test on HT29 colon was 49.7 µM; with LOX IMVI melanoma it was 36.3 µM; in the test on MOLT-4 leukemia, 43.6 µM; in the test on NCI-H23 lung, > 100 µM; in the test with OVCAR-5 ovarian, 93.9 µM; in the test with RXF 393 renal it was 39.9 µM. Further, the TGI in the test on SK-MEL-28 melanoma was > 100 µM.
On to `O=C(CSSCC(=O)Nc1ccc(Br)cc1)Nc1ccc(Br)cc1`, for which the TGI in the test on HT29 colon came to 47.6 µM; in the test with LOX IMVI melanoma it was 26.3 µM; in the test with MOLT-4 leukemia, 67 µM; in the test with NCI-H226 lung it was 31.7 µM; in the test on NCI-H23 lung, 35.2 µM; with OVCAR-5 ovarian it was 41.7 µM. Besides, the values for the TGI in the test with RXF 393 renal and in the test with SK-MEL-28 melanoma were 33.2 µM and 32.4 µM, respectively.
Consider `COc1ccc2c(c1)C(c1cc(OC)c3c(c1)OCO3)C1=C(COC1=O)N2` (stereo unspecified), for which the GI50 in the test on HS 578T breast is 0.214 µM; in the test on HT29 colon it was 0.325 µM; in the test on LOX IMVI melanoma, 0.66 µM; in the test with MDA-MB-435 it was 0.049 µM; in the test with MOLT-4 leukemia, 0.51 µM; in the test on NCI-H226 lung, 0.389 µM. Also, the GI50 in the test on NCI-H23 lung was 0.346 µM; in the test on OVCAR-5 ovarian, 0.629 µM; in the test on SK-MEL-28 melanoma it was 0.36 µM. For the same molecule, the TGI was > 79.4 µM with HS 578T breast; > 100 µM in the test with LOX IMVI melanoma; 0.287 µM in the test on MDA-MB-435; > 100 µM in the test with MOLT-4 leukemia; 4.8 µM with NCI-H226 lung; > 64.9 µM with NCI-H23 lung. The TGI in the test with OVCAR-5 ovarian and with SK-MEL-28 melanoma was > 100 µM each time.
With `COc1ccc2nc3cccc([N+](=O)[O-])c3c(NC(C)CN(C)C)c2c1` (stereo unspecified), the GI50 was 1.63 µM with HT29 colon; 1.91 µM in the test on LOX IMVI melanoma; 1.23 µM in the test on MOLT-4 leukemia; 1.75 µM in the test with NCI-H226 lung; 2.1 µM in the test with NCI-H23 lung; 1.73 µM in the test with OVCAR-5 ovarian. Besides, in the test on SK-MEL-28 melanoma, the GI50 is 3.05 µM. For the same molecule, the TGI in the test on HT29 colon amounted to 6.8 µM; with LOX IMVI melanoma it was 5.04 µM; in the test with MOLT-4 leukemia, 4.13 µM; in the test on NCI-H226 lung, 4.1 µM; in the test with NCI-H23 lung it was 5.33 µM; in the test on OVCAR-5 ovarian, 5.21 µM.
Take `CC[PH+](CC)CC.CC[PH+](CC)CC.[Au]`: the GI50 is 16.3 µM in the test with HT29 colon; 8.67 µM in the test on LOX IMVI melanoma; 5.33 µM with MOLT-4 leukemia; 18.2 µM with NCI-H226 lung; 13.3 µM in the test with NCI-H23 lung; 25.8 µM in the test on OVCAR-5 ovarian. The GI50 in the test with SK-MEL-28 melanoma is 3.88 µM. Also, the TGI came to 32.4 µM with HT29 colon; 24.2 µM with LOX IMVI melanoma; 24.1 µM in the test with MOLT-4 leukemia; 37.5 µM with NCI-H226 lung; 28.6 µM in the test with NCI-H23 lung; 41.5 µM in the test on OVCAR-5 ovarian. The molecule also gave a TGI with SK-MEL-28 melanoma of 16.9 µM.
In the case of `OCC1CCCC1O` (stereo unspecified), the TGI in the test with HT29 colon, in the test with MDA-MB-435, in the test with MOLT-4 leukemia, in the test on NCI-H226 lung, in the test on NCI-H23 lung and in the test on OVCAR-5 ovarian was > 100 µM throughout. Also, the TGI in the test on RXF 393 renal and with SK-MEL-28 melanoma was > 100 µM in each case.
With `CN(C)CCNC(=O)c1ccc2oc3cc4ccccc4c(=O)n3c2c1`, the GI50 in the test on HT29 colon was 28 µM; in the test on LOX IMVI melanoma, 42.2 µM; in the test on MDA-MB-435 it was 42.1 µM; in the test on MOLT-4 leukemia, 64.2 µM; with NCI-H23 lung, 17.4 µM; in the test on RXF 393 renal, 23.8 µM. For the same molecule, the GI50 in the test with SK-MEL-28 melanoma is 26.6 µM. The TGI is > 100 µM in the test with HT29 colon; > 100 µM in the test on LOX IMVI melanoma; > 100 µM with MDA-MB-435; > 100 µM with MOLT-4 leukemia; 57.8 µM in the test on NCI-H23 lung; 70.4 µM in the test with RXF 393 renal. Moreover, the TGI in the test on SK-MEL-28 melanoma was > 100 µM.
Take `N#CCc1nnc(N)o1`: the TGI in the test with LOX IMVI melanoma, with MOLT-4 leukemia, with NCI-H226 lung, in the test on NCI-H23 lung and in the test on SK-MEL-28 melanoma was > 100 µM in each case.
